Data from patent US20150157648A1, “NUTRITIONAL APPROACH TO IMPROVING ATHLETIC PERFORMANCE AND REDUCING INJURY WITH L-ERGOTHIONEINE AND/OR VITAMIN D2” (priority 2012, published 2015).

Tests used:
[1] = after mushroom consumption, healthy men; cited from earlier work
IL-6 = IL-6 ELISA of whole blood cell lysate from alpha synuclein transgenic mice; type: in vivo; conditions: one remaining sample per treatment group
Experimental: We pursued this effect in our mice since the role of IL-6 and other neuroimmune factors need to be elucidated on PD. Alpha synuclein transgenic mice expressing the human gene for alpha-synuclein were treated with the medical food ErgoD2™ (Pleurotus; Table 3) or N-Acetylcysteine (NAC), and whole blood cell lysate samples from these mice were evaluated in triplicate using an ELISA for the presence of IL-6. The results were compared to those from untreated and wild-type controls.
A serial dilution of provided standard solution allowed for the creation of a standard curve following absorbency reading. An exponential regression of this curve was used to extrapolate the concentration of IL-6 in the lysate samples based on their final absorbency values and accounting for dilution factors of the samples.
Lysate samples taken from subjects #222 and #321 were clotted. A small amount of each was used during assay, but their relatively high corresponding dilution factors call into question the findings based on these samples.

[2] = tested on: SNCA transgenic mouse model of PD; experiment: grip strength task in SNCA transgenic mouse model of PD; type: in vivo; conditions: PD model mice, three months of treatment
Description: Matched cohorts of an SNCA transgenic mouse model of PD were used to measure the therapeutic efficacy of the medical food formulation ErgoD2TM, created from a single mushroom species, Pleurotus […]. The outcomes measurements assessed improvement in grip strength and alpha-synuclein levels in the cortex and/or midbrain of the PD animals. […] No detectable motor behavior impairments, autonomic abnormalities, olfactory dysfunction, dopaminergic deficits, Lewy body inclusions or neurodegeneration are associated with α-synuclein expression in these mice (Kuo et al., 2010). As outlined in the results section, the mice were grouped at ten (10) mice/cohort and were fed a purina diet for three months with and without addition of the medical food ErgoD2TM, provided by Entia Biosciences, Inc. Three (3) test diets were created with the assistance of Carrie Schultz, Ph.D., Land O'Lakes Purina Feed, and each diet was color-coded. The control/placebo mouse diet consisted of Purina Modified LabDiet® (RMH 3000). The two treatment diets were RMH 3000 supplemented with (i) synthetic N-Acetyl Cysteine (NAC) @ 0.015% of total weight and (ii) the medical food ErgoD2TM @ 0.5% of total weight. […] The mouse is then pulled back gently until the grip is released and peak force at the point of release is recorded in Kg. […]

alpha-synuclein = alpha-synuclein ELISA of plasma, cortex and midbrain of SNCA transgenic mice; type: in vivo, mouse; conditions: three months of diet; untreated controls 2.52±0.28
Description: Matched cohorts of an SNCA transgenic mouse model of PD were used to measure the therapeutic efficacy of the medical food formulation ErgoD2TM, created from a single mushroom species, Pleurotus […]. The outcomes measurements assessed improvement in grip strength and alpha-synuclein levels in the cortex and/or midbrain of the PD animals. […] No detectable motor behavior impairments, autonomic abnormalities, olfactory dysfunction, dopaminergic deficits, Lewy body inclusions or neurodegeneration are associated with α-synuclein expression in these mice (Kuo et al., 2010). As outlined in the results section, the mice were grouped at ten (10) mice/cohort and were fed a purina diet for three months with and without addition of the medical food ErgoD2TM, provided by Entia Biosciences, Inc. Three (3) test diets were created with the assistance of Carrie Schultz, Ph.D., Land O'Lakes Purina Feed, and each diet was color-coded. […] Alpha-synuclein was measured using an ELISA kit (Invitrogen, Hu α-Synuclein ELISA Kit) according to the manufacturer's protocol. The α-synuclein concentration of each 1 mL homogenized midbrain lysate was calculated by interpolating absorbance readings to a standard curve and adjusting for necessary dilution factors and protein equivalencies. The mean α-synuclein concentration of the samples in each treatment group was then calculated. […]

glutathione (GSH) = experiment: kinetic assay of plasma glutathione (GSH) in Pac-Tg (SNCA) transgenic mice; type: in vivo; conditions: trend only: p=0.10 (Pleurotus), p=0.09 (NAC)
Experimental: Our Pac-Tg (SNCA) mice transgenic mice express the human gene for human alpha-synuclein and these were assigned one of four treatment paradigms (including no treatment). Plasma samples taken from these mice were evaluated in duplicate using a kinetic assay protocol for the presence of glutathione (GSH), a measure of resilience to oxidative stress. The tested subject groups were treated with one of the following: Blazei Mushroom, Pleurotus mushroom, or n-acetyl cysteine (NAC). The results for these groups were compared to those for both untreated and wild-type controls.
Data. A serial dilution of provided standard solution allowed for the creation of a standard curve following kinetic absorbance readings (FIGS. 6A and B). The change in absorbance (Vmax) over five minutes (six absorbance readings) was calculated for each standard and plotted against each standard's known GSH concentration. […] The change in absorbance for the second standard was calculated using only the first two kinetic readings (t=0, t=1) for the same reason. […] A linear regression of the resulting standard curve allowed for extrapolation of GSH levels in the assayed plasma samples based on their changes in absorbance (Vmax) over six minute-reads.
Following tabulation of the data, results were omitted if they were not reproducible in duplicate using all six kinetic readings and within 30% precision. […]

Drosophila melanogaster = experiment: survival of Drosophila under Paraquat-induced oxidative stress; type: in vivo; conditions: for effect on Paraquat-induced oxidative stress (in words): single nutrient, pure form
Experimental: The effect of Agaricus Blazei without enrichment, with Vitamin D2 enrichment, pure Vitamin D2 and control (vehicle for the delivery) on the survival rate of Drosophila melanogaster under Paraquat-induced oxidative stress condition was tested. The study focused on the control of Paraquat induced oxidative stress/biologic death. Paraquat is a very potent oxidative stress inducing chemical and causes death in animals and plants by the toxicity of released free radicals. Paraquat (10 mM concentration) (Sigma Aldrich) was used to chemically induce oxidative stress. Paraquat is the trade name for N,N′-dimethyl-4,4′-bipyridinium dichloride, a widely used herbicide. Paraquat, a viologen, is quick-acting and non-selective, killing green plant tissue on contact. It is also toxic to humans when swallowed. This is the most standard chemical used in experimental induction of oxidative stress using the Drosophila model system. It catalyzes the formation of reactive oxygen species (ROS). Paraquat will undergo redox cycling in vivo, gets reduced by an electron donor such NADPH, before being oxidized by an electron receptor such as dioxygen to produce superoxide, a major ROS.
The following materials and methods were utilized. Vials containing 10 mM Paraquat (from Sigma Aldrich) in 5 ml of 1.2% Low melting point Agarose medium were prepared. A strip of half moist filter paper was inserted in the medium (with the wet end in). Yeast paste containing 1% concentration (w/w) of the various test materials (see above) mixed to homogeneity was prepared. Yeast paste without drug was used as control. Uniform aliquot (˜300 mg) of yeast paste with or without the test material) was applied to vials in such a way that yeast paste was on the glass surface and covered the dry end (top) of the filter paper strip. Freshly enclosed wild type isogenized Canton-S males and females were collected and starved on 1% agar medium for 5-6 hours. […] Flies were transferred once in 2 days and the number of flies surviving at each transfer was recorded.

[3] = tested on: Alzheimer's disease mutant fruit fly; experiment: survival and life span of Alzheimer's disease (APP over-expression) Drosophila model; type: in vivo; conditions: APP induced in central brain by GAL4 driver
Description: Type of Model (with specific Drosophila model of neurodegeneration, with references). The targeted over/ectopic expression of APP in the brain using a UAS promoter driven APP transgene, induced by a specific GAL4 trans-driver in the brain of a Drosophila model system, was used for this Example. Below is a reference for such over-expression of APP in the Drosophila model system and the combination gives a fully penetrant AD with limited life-span.
β-Amyloid peptides and amyloid precursor protein (APP) play a deterministic role in Alzheimer's disease (AD). In Drosophila, the targeted expression of the key genes of AD, APP, causes generation of β-amyloid plaques and age-dependent neurodegeneration as well as progression to semi lethality, a shortened life span; genetic manipulations or pharmacological treatments with secretase inhibitors influenced the activity of the APP-processing proteases and modulated the severity of the phenotypes (Greeve I., et al., J. Neuroscience 24, 3899-3906 (2004)). The AD strain lives only for a few days after their eclosion (birth) as opposed to 65 days or more for wild type normal strains.
We determined the extension of life span in the mutant strain for each test compound. We used a specific GAL4 driver that induces the APP gene in the central brain area at high levels (see above) and results in a fully penetrant lethality within a 2-3 weeks period.

## C[N+](C)(C)[C@@H](Cc1c[nH]c(=S)[nH]1)C(=O)[O-] [ET, L-Ergothioneine]
[1]
  time to peak of ET in red blood cells (RBC): 2 h

## CC(=O)N[C@@H](CS)C(=O)O [NAC, N-Acetylcysteine]
IL-6
  IL-6 more than the untreated group: 8.7 pg/mL
  IL-6 more than the wild-type group: 9.5 pg/mL
[2]
  grip testing (in words): statistically significant improvement
alpha-synuclein
  mean midbrain α-synuclein concentration: 2.17 ± 0.31 µg/mL
Glutathione (GSH)
  plasma glutathione concentration vs. untreated mice: higher concentrations of glutathione

## C=C1CC[C@H](O)C/C1=C/C=C1\CCC[C@]2(C)[C@@H]([C@H](C)CCCC(C)C)CC[C@@H]12 [Vitamin D3, cholecalciferol]
Drosophila melanogaster
  effect on Paraquat-induced oxidative stress (in words): no beneficial effect
[3]
  survival rate of AD flies versus control: no such effect

## C=C1CC[C@H](O)C/C1=C/C=C1\CCC[C@]2(C)[C@@H]([C@H](C)/C=C/[C@H](C)C(C)C)CC[C@@H]12 [pure Vitamin D2, Ergocalciferol]
Drosophila melanogaster; 10 mM Paraquat, 1% (w/w) test material in yeast paste, 10 days, 25 degrees C
  survivability under Paraquat-induced oxidative stress: 13%+/−3%
Drosophila melanogaster
  effect on Paraquat-induced oxidative stress (in words): no beneficial effect
[3]
  survival rate of AD flies versus control: no such effect
